These compounds were tested on human kidney carcinoma cell line A498 (assay: Cell proliferation assay (WST-1), A498). Conditions: A498 cells, 48 hours treatment.
Type: cell-based
Experimental: A498 cells were purchased from German Collection of Microorganisms and Cell Cultures, Germany. RC-124 cell line was purchased from CLS, Germany. Minimum Essential Medium (MEM), McCoy's 5a and Dulbecco's Modified Eagle's Medium (DMEM) were purchased from PAA, Austria. Fetal calf serum was purchased from Invitrogen, Germany. Non-essential amino acids and sodium pyruvate were purchased from Sigma-Aldrich, Germany.
The human kidney carcinoma cell line A498 was cultured in Minimum Essential Medium (MEM, with Earl's salts). The African green monkey cell line BSC-1 and the human embryonic kidney cell line HEK293 were maintained in Dulbecco's Modified Eagle's Medium (DMEM). The human kidney cell line RC-124 was cultured in McCoy's 5a medium. All media were supplemented with 10% fetal calf serum and penicillin and streptomycin. The cells were maintained at 37° C. in a 5% CO2 humidified atmosphere. Cells were discarded after 20 passages.
Cell proliferation was determined as a function of the metabolic activity by means of the cell proliferation reagent WST-1 (Roche, Mannheim Germany). 4000 cells were seeded in quadruplicates into the wells of 96 well plates and were allowed to attach for 24 hours prior to treatment with different compound concentrations for 48 hours. All samples contained 0.1% DMSO. After the treatment, the WST-1 reagent was added to the cells according to the manufacturer's protocol. The absorbance was measured with the Inifinite® M200 plate reader (Tecan, Austria) at 450/690 nm. Mean values (n=4) were used to generate dose-response curves by fitting to a four-parameter IC50 equation. The IC50 values for each compound were calculated with the software GraFit 5.0.
The following IC50 values were obtained for the human kidney carcinoma cell line A498. Very similar IC50 values were obtained for the African green monkey cell line BSC-1, the human embryonic kidney cell line HEK293 and the human kidney cell line RC-124.

| SMILES | IC50 [nM] |
| --- | --- |
| CC(C)C12C[C@@H](OC(=O)CO)[C@@](C)(O1)[C@@H]1CC[C@@H](C)[C@H]1[C@@H]2OC(=O)/C=C/C1CCCCC1 [Compound 15] | < 30 |
| C/C(=C\C(=O)O[C@H]1[C@@H]2[C@H](C)CC[C@H]2[C@]2(C)OC1(C(C)C)C[C@H]2OC(=O)CO)c1ccccc1 [Compound 17] | < 30 |
| CC(C)C12C[C@@H](OC(=O)CO)[C@@](C)(O1)[C@@H]1CC[C@@H](C)[C@H]1[C@@H]2OC(=O)/C=C/c1c(F)cccc1Cl [Compound 24] | 30 to 100 |
| CC(C)C12C[C@@H](OC(=O)CO)[C@@](C)(O1)[C@@H]1CC[C@@H](C)[C@H]1[C@@H]2OC(=O)c1ccc(Cl)cc1 [Compound 29] | 500 to 5000 |
| CC(C)C12C[C@@H](OC(=O)CO)[C@@](C)(O1)[C@@H]1CC[C@@H](C)[C@H]1[C@@H]2OC(=O)c1ccc([N+](=O)[O-])cc1 [Compound 30] | 500 to 5000 |
| CC(C)[C@@]12C[C@@H](OC(=O)CO)C(C)(O1)[C@@H]1CC[C@@H](C)[C@H]1[C@@H]2OC(=O)C1CCC2CCCCC2C1 (stereo partly drawn) [Compound 38] | 30 to 100 |
| COCC(=O)O[C@@H]1C[C@]2(C(C)C)OC1(C)[C@@H]1CC[C@@H](C)[C@H]1[C@@H]2OC(=O)/C=C/c1ccccc1 [Compound 43] | 500 to 5000 |
| C#CCCCC(=O)O[C@@H]1C[C@]2(C(C)C)OC1(C)[C@@H]1CC[C@@H](C)[C@H]1[C@@H]2OC(=O)/C=C/c1ccccc1 [Compound 45] | 500 to 5000 |
| C#CCOCC(=O)O[C@@H]1C[C@]2(C(C)C)OC1(C)[C@@H]1CC[C@@H](C)[C@H]1[C@@H]2OC(=O)/C=C/c1ccccc1 [Compound 46] | 500 to 5000 |
| CC(C)C12C[C@@H](OC(=O)[C@H](C)O)[C@@](C)(O1)[C@@H]1CC[C@@H](C)[C@H]1C2OC(=O)/C=C/c1ccccc1 (stereo partly drawn) [Compound 52] | 500 to 5000 |
| C#CC[C@@H](O)C(=O)O[C@@H]1CC2(C(C)C)O[C@@]1(C)[C@@H]1CC[C@@H](C)[C@H]1C2OC(=O)c1ccc2c(c1)CCCC2 (stereo partly drawn) [Compound 56] | 500 to 5000 |
| C#CC[C@@H](O)C(=O)O[C@@H]1CC2(C(C)C)O[C@@]1(C)[C@@H]1CC[C@@H](C)[C@H]1C2OC(=O)c1ccc2ccccc2c1 (stereo partly drawn) [Compound 57] | 500 to 5000 |
| C#CC[C@@H](O)C(=O)O[C@@H]1CC2(C(C)C)O[C@@]1(C)[C@@H]1CC[C@@H](C)[C@H]1C2OC(=O)c1ccc(C2(C(F)(F)F)N=N2)cc1 (stereo partly drawn) [Compound 58] | 500 to 5000 |

The remaining lines, values ahead:

| IC50 [nM] | SMILES |
| --- | --- |
| 500 to 5000 | CCC12C[C@@H](OC(=O)CO)[C@@](C)(O1)[C@@H]1CC[C@@H](C)[C@H]1[C@@H]2OC(=O)/C=C/c1ccccc1 [Compound 13] |
| 500 to 5000 | C[C@@H]1CC[C@@H]2[C@@H]1[C@H](OC(=O)/C=C/c1ccccc1)[C@]1(C)C[C@@H](OC(=O)CO)[C@@]2(C)O1 [Compound 14] |
| < 30 | CC(C)C12C[C@@H](OC(=O)CO)[C@@](C)(O1)[C@@H]1CC[C@@H](C)[C@H]1[C@@H]2OC(=O)c1ccc2ccccc2c1 [Compound 16] |
| 500 to 5000 | CC(C)C12C[C@@H](OC(=O)CO)[C@@](C)(O1)[C@@H]1CC[C@@H](C)[C@H]1[C@@H]2OC(=O)/C=C/c1ccc(F)cc1 [Compound 18] |
| 500 to 5000 | CC(C)C12C[C@@H](OC(=O)CO)[C@@](C)(O1)[C@@H]1CC[C@@H](C)[C@H]1[C@@H]2OC(=O)/C=C/c1ccc(Cl)cc1 [Compound 19] |
| 500 to 5000 | CC(C)C12C[C@@H](OC(=O)CO)[C@@](C)(O1)[C@@H]1CC[C@@H](C)[C@H]1[C@@H]2OC(=O)/C=C/c1ccc2c(c1)OCO2 [Compound 23] |
| 500 to 5000 | C/C(=C\c1ccccc1)C(=O)O[C@H]1[C@@H]2[C@H](C)CC[C@H]2[C@]2(C)OC1(C(C)C)C[C@H]2OC(=O)CO [Compound 26] |
| 100 to 500 | CC(C)C12C[C@@H](OC(=O)CO)[C@@](C)(O1)[C@@H]1CC[C@@H](C)[C@H]1[C@@H]2OC(=O)c1ccc(Cl)c(Cl)c1 [Compound 31] |
| < 30 | CC(C)[C@@]12C[C@@H](OC(=O)CO)C(C)(O1)[C@@H]1CC[C@@H](C)[C@H]1[C@@H]2OC(=O)c1ccc2c(c1)CCCC2 [Compound 36] |
| 30 to 100 | CC(C)[C@@]12C[C@@H](OC(=O)CO)C(C)(O1)[C@@H]1CC[C@@H](C)[C@H]1[C@@H]2OC(=O)C1CCc2ccccc2C1 (stereo partly drawn) [Compound 37] |
| < 30 | Cc1c(C(=O)O[C@H]2[C@@H]3[C@H](C)CC[C@H]3C3(C)O[C@@]2(C(C)C)C[C@H]3OC(=O)CO)ccc2ccccc12 [Compound 39] |
| < 30 | Cc1c(C(=O)O[C@H]2[C@@H]3[C@H](C)CC[C@H]3C3(C)O[C@@]2(C(C)C)C[C@H]3OC(=O)CO)ccc2c1CCCC2 [Compound 40] |
| 30 to 100 | CC(C)[C@@]12C[C@@H](OC(=O)CO)C(C)(O1)[C@@H]1CC[C@@H](C)[C@H]1[C@@H]2OC(=O)c1ccc(C2(C(F)(F)F)N=N2)cc1 [Compound 41] |
| 100 to 500 | C#CCCCC(=O)OCC(=O)O[C@@H]1C[C@]2(C(C)C)OC1(C)[C@@H]1CC[C@@H](C)[C@H]1[C@@H]2OC(=O)/C=C/c1ccccc1 [Compound 44] |
| 100 to 500 | CC(C)C12C[C@@H](OC(=O)[C@@H](C)O)[C@@](C)(O1)[C@@H]1CC[C@@H](C)[C@H]1C2OC(=O)/C=C/c1ccccc1 (stereo partly drawn) [Compound 53] |
| 100 to 500 | CC(C)C12C[C@@H](OC(=O)[C@H](C)O)[C@@](C)(O1)[C@@H]1CC[C@@H](C)[C@H]1C2OC(=O)c1ccc2ccccc2c1 (stereo partly drawn) [Compound 54] |
| 30 to 100 | CC(C)C12C[C@@H](OC(=O)[C@@H](C)O)[C@@](C)(O1)[C@@H]1CC[C@@H](C)[C@H]1C2OC(=O)c1ccc2ccccc2c1 (stereo partly drawn) [Compound 55] |
